We go through 19 molecules from US20220235064A1 (WELLMARKER BIO CO., LTD., priority 2019, published 2022).

Experiment [1] has as its target T1, RON tyrosine kinase (Homo sapiens, UniProt Q04912).
T1 construct: purchased Carna Bioscience
The experiment in a line: Enzyme inhibitory activity against RON tyrosine kinase (TR-FRET). The following applies: RON (Carna Bioscience). The format is biochemical. In short, it runs like this:
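Recombinant RON was preincubated with compound for 15 min at RT in 50 mM HEPES pH 7.5, 10 mM MgCl2, 1 mM EGTA, 2 mM DTT, 0.01% Tween-20. Enzyme (0.4 nM), ATP (60 μM) and tyrosine peptide (400 nM) were prepared at 2×, 4× and 4× final. After 60 min at RT, EDTA/Eu-anti-phosphotyrosine stop; IC50 from 665 nm TR-FRET emission.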

For experiment [2], the system named is cancer cell line KM12C, in which RON is activated. The experiment in a line: Cell-killing efficacy in RON-activated cancer cell line (trypan blue). It counts as cell-based. The note with it: Homo sapiens, 48 hours, trypan blue, n=2, read-out: Cell death (%) Cancer cell line KM12C. In short, it runs like this: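 KM12C cells seeded 1×10^5 per 60 mm^2 dish in MEM + 10% FBS, then exposed 24 h later to compound at 1 μM or 5 μM for 48 h.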

For experiment [3] the test system is unchanged. The experiment in a line: Cell growth inhibitory ability in RON-activated cancer cell line (MTS). The following applies: Homo sapiens, 48 hours, absorbance 490 nm. The format is cell-based. The procedure: Experimental Example 2: Identification of Cell Growth Inhibitory Ability of Example Compounds in RON-Activated Cancer Cell Line
The cancer cell line KM12C (80015, KCLB, MEM+1K° FBS), in which RON is activated, was treated with each of the example compounds at a concentration of 10 μM, and then reaction was allowed to proceed for 48 hours. 24 hours after completion of the reaction, 20 μl of MTS solution (CellTiter 96 Aqueous One Solution Cell Proliferation Assay, product number: G3581, Promega) was added to each well, and then incubation was performed at a temperature of 37° C. in 50 CO2 incubator for 4 hours. Then, an IC50 value of the compound was derived by measuring its absorbance value at a wavelength of 490 nm using a Victor X5 plate reader. Here, as a positive control, N-(4-(2-amino-3-chloropyridin-4-yloxy)-3-fluorophenyl)-4-ethoxy-1-(4-fluorophenyl)-2-oxo-1,2-dihydropyridine-3-carboxamide, which is the compound of Example 1 in WO 2008/058229 A1, was used.

SMILES strings stand for the structures. Counter-ions that a name gives are not always drawn.

T1 sequence (Q04912 25-1400): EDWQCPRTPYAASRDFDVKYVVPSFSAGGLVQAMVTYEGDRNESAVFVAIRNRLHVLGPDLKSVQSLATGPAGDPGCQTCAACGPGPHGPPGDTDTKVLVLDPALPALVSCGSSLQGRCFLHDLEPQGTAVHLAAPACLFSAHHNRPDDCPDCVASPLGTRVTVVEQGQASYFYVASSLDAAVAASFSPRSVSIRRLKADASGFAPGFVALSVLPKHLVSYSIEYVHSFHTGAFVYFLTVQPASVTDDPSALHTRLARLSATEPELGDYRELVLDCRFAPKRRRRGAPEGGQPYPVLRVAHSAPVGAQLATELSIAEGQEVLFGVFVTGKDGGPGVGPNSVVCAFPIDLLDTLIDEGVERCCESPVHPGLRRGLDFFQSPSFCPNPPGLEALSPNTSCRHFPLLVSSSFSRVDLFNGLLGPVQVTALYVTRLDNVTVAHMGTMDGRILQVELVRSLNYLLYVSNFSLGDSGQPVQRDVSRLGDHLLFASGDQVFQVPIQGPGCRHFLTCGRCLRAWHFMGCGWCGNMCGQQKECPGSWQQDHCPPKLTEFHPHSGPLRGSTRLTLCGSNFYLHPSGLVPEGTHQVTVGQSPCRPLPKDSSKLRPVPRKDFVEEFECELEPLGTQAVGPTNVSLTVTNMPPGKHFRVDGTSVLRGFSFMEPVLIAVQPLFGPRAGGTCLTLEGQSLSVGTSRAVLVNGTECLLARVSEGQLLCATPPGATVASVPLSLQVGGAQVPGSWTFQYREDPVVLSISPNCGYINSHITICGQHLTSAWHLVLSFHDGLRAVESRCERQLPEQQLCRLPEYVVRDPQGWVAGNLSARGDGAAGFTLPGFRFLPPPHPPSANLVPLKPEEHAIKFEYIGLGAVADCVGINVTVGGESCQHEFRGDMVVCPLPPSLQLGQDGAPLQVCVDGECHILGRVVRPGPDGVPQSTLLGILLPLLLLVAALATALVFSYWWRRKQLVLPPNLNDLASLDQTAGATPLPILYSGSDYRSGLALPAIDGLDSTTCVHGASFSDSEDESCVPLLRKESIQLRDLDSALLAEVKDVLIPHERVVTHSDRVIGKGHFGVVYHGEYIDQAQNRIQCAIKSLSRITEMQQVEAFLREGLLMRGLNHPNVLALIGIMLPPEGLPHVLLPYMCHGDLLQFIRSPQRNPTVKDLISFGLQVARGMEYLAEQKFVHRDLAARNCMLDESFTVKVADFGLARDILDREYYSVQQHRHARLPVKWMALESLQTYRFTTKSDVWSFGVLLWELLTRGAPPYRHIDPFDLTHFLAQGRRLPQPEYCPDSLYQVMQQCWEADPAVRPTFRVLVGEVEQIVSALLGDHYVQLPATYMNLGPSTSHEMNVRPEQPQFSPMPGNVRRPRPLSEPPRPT

On to `COc1cc2nccc(Oc3ccc(NC(=O)c4c5c(cn(-c6ccc(F)cc6)c4=O)CCO5)cc3F)c2cc1C(N)=O` [Example 47, N-(4-((6-Carbamoyl-7-methoxyquinolin-4-yl)oxy)-3-fluorophenyl)-5-(4-fluorophenyl)-6-oxo-2,3,5,6-tetrahydrofuro[3,2-c]pyridine-7-carboxamide], for which half-maximal inhibition in experiment [1] (IC50) required 0.47 nM. For the same molecule, in experiment [2], the cytotoxicity at 1 µM came out at 18% and the cytotoxicity at 5 µM amounted to 30.9%. In experiment [3], this molecule had an IC50 of 2 nM.

In experiment [1], `CNC(=O)c1cc2nccc(Oc3ccc(NC(=O)c4c5c(cn(-c6ccc(F)cc6)c4=O)CCO5)cc3F)c2cc1OCCN1CCOCC1` [Example 166, N-(3-Fluoro-4-((7-(methylcarbamoyl)-6-(2-morpholinoethoxy)quinolin-4-yl)oxy)phenyl)-5-(4-fluorophenyl)-6-oxo-2,3,5,6-tetrahydrofuro[3,2-c]pyridine-7-carboxamide] displayed an IC50 of 1.9 nM. Also, in experiment [2], the cytotoxicity at 1 µM turned out to be 11.4% and the cytotoxicity at 5 µM was 14.9%. In experiment [3], this molecule showed a half-maximal inhibitory concentration (IC50) of 16 nM.

`COc1cc2nccc(Oc3ccc(NC(=O)c4c5c(cn(-c6ccc(F)cc6)c4=O)CCO5)cc3F)c2cc1NC(=O)CCN1CCOCC1` [Example 180, N-(3-Fluoro-4-((7-methoxy-6-(3-morpholinopropanamido)quinolin-4-yl)oxy)phenyl)-5-(4-fluorophenyl)-6-oxo-2,3,5,6-tetrahydrofuro[3,2-c]pyridine-7-carboxamide] registered an IC50 in experiment [1] of 6.83 nM. Besides, in experiment [2], the cytotoxicity at 1 µM came out at 18.1% and the cytotoxicity at 5 µM was 20.6%. Also, in experiment [3], the half-inhibitory concentration (IC50) is 3 nM.

In experiment [1], `O=C(Nc1ccc(Oc2ccnc3cc(OCCCN4CCCCC4)ccc23)c(F)c1)c1c2c(cn(-c3ccc(F)cc3)c1=O)CCO2` [Example 161] showed an IC50 of 0.61 nM. Further, in experiment [2], the cytotoxicity at 1 µM was determined as 23.4% and the cytotoxicity at 5 µM is 22%. Moreover, in experiment [3], the IC50 came out at 7 nM.

Turning to `O=C(Nc1ccc(Oc2ccnc3cc(-c4ccc(CN5CCOCC5)cn4)sc23)c(F)c1)c1c2c(cn(-c3ccccc3)c1=O)CCO2` [Example 6, N-(3-Fluoro-4-((2-(5-(morpholinomethyl)pyridin-2-yl)thieno[3,2-b]pyridin-7-yl)oxy)phenyl)-6-oxo-5-phenyl-2,3,5,6-tetrahydrofuro[3,2-c]pyridine-7-carboxamide hydrochloride], inhibition in experiment [1] was half-maximal at 1.43 nM (IC50). Also, in experiment [2], the cytotoxicity at 1 µM was 29.3% and the cytotoxicity at 5 µM is 34.3%. Further, in experiment [3], it took 2 nM to reach half-maximal inhibition (IC50).

In the case of `O=C(Nc1ccc(Oc2ccnc3cc(OCCN4CCOCC4)c(F)cc23)c(F)c1)c1c2c(cn(-c3ccc(F)cc3)c1=O)CCO2` [Example 167, N-(3-Fluoro-4-((6-fluoro-7-(2-morpholinoethoxy)quinolin-4-yl)oxy)phenyl)-5-(4-fluorophenyl)-6-oxo-2,3,5,6-tetrahydrofuro[3,2-c]pyridine-7-carboxamide], the IC50 was 0.83 nM in experiment [1] and 6 nM in experiment [3].

With `COc1cc2nccc(Oc3ccc(NC(=O)c4c5c(cn(-c6ccc(F)cc6)c4=O)CCO5)cc3F)c2cc1C(=O)NCCN1CCOCC1` [Example 50, N-(3-Fluoro-4-((7-methoxy-6-((2-morpholinoethyl)carbamoyl)quinolin-4-yl)oxy)phenyl)-5-(4-fluorophenyl)-6-oxo-2,3,5,6-tetrahydrofuro[3,2-c]pyridine-7-carboxamide], the results for the concentration for half-maximal inhibition (IC50) in experiment [1] and in experiment [3] were 1.18 nM and 2 nM, respectively. Moreover, the cytotoxicity at 1 µM in experiment [2] turned out to be 19.4%. The cytotoxicity at 5 µM in experiment [2] was determined as 32.3%.

In the case of `CNC(=O)c1cc2c(Oc3ccc(NC(=O)c4c5c(cn(-c6ccc(F)cc6)c4=O)CCO5)cc3F)ccnc2cc1OC` [Example 48, N-(3-Fluoro-4-((7-methoxy-6-(methylcarbamoyl)quinolin-4-yl)oxy)phenyl)-5-(4-fluorophenyl)-6-oxo-2,3,5,6-tetrahydrofuro[3,2-c]pyridine-7-carboxamide], the IC50 in experiment [1] is 0.85 nM; in experiment [3], 1 nM. Moreover, the cytotoxicity at 1 µM in experiment [2] was determined as 18.9%. Further, in experiment [2], the cytotoxicity at 5 µM is 15.5%.

With `O=C(Nc1ccc(Oc2ccnc3cc(OCCN4CCOCC4)c(Cl)cc23)c(F)c1)c1c2c(cn(-c3ccc(F)cc3)c1=O)CCO2` [Example 171, N-(4-((6-Chloro-7-(2-morpholinoethoxy)quinolin-4-yl)oxy)-3-fluorophenyl)-5-(4-fluorophenyl)-6-oxo-2,3,5,6-tetrahydrofuro[3,2-c]pyridine-7-carboxamide], the IC50 was 7.13 nM in experiment [1] and 8 nM in experiment [3].

In the case of `COc1cc2nccc(Oc3ccc(NC(=O)c4c5c(cn(-c6ccc(F)cc6)c4=O)CCO5)cc3F)c2cc1NCCCN1CCOCC1` [Example 186, N-(3-Fluoro-4-((7-methoxy-6-((3-morpholinopropyl)amino)quinolin-4-yl)oxy)phenyl)-5-(4-fluorophenyl)-6-oxo-2,3,5,6-tetrahydrofuro[3,2-c]pyridine-7-carboxamide], the IC50 in experiment [1] was 7.52 nM; in experiment [3] it was 3 nM.

In the case of `COc1cc2nccc(Oc3ccc(NC(=O)c4c5c(cn(-c6ccc(F)cc6)c4=O)CCO5)cc3F)c2cc1NC(=O)CN1CCOCC1` [Example 53, N-(3-Fluoro-4-((7-methoxy-6-(2-morpholinoacetamido)quinolin-4-yl)oxy)phenyl)-5-(4-fluorophenyl)-6-oxo-2,3,5,6-tetrahydrofuro[3,2-c]pyridine-7-carboxamide], the IC50 in experiment [1] was 1.03 nM; in experiment [3], 3 nM.

On to `O=C(Nc1ccc(Oc2ccnc3cc(OCCCN4CCOCC4)c(F)cc23)c(F)c1)c1c2c(cn(-c3ccc(F)cc3)c1=O)CCO2` [Example 168, N-(3-Fluoro-4-((6-fluoro-7-(3-morpholinopropoxy)quinolin-4-yl)oxy)phenyl)-5-(4-fluorophenyl)-6-oxo-2,3,5,6-tetrahydrofuro[3,2-c]pyridine-7-carboxamide], for which the IC50 was found to be 0.45 nM in experiment [1] and 25 nM in experiment [3].

Regarding `N#Cc1cc2c(Oc3ccc(NC(=O)c4c5c(cn(-c6ccc(F)cc6)c4=O)CCO5)cc3F)ccnc2cc1OCCN1CCOCC1` [Example 173, N-(4-((6-Cyano-7-(2-morpholinoethoxy)quinolin-4-yl)oxy)-3-fluorophenyl)-5-(4-fluorophenyl)-6-oxo-2,3,5,6-tetrahydrofuro[3,2-c]pyridine-7-carboxamide], the IC50 came out at 0.58 nM in experiment [1] and 3 nM in experiment [3].

As to `O=C(Nc1ccc(Oc2ccnc3cc(-c4ccccn4)sc23)c(F)c1)c1c2c(cn(-c3ccccc3)c1=O)CCO2` [Example 4], the IC50 worked out at 0.35 nM in experiment [1] and 8 nM in experiment [3].

As for `CN1CCC(Nc2cc(Oc3ccc(NC(=O)c4c5c(cn(-c6ccc(F)cc6)c4=O)CCO5)cc3F)ccn2)CC1` [Example 63, N-(3-Fluoro-4-((2-((1-methylpiperidin-4-yl)amino)pyridin-4-yl)oxy)phenyl)-5-(4-fluorophenyl)-6-oxo-2,3,5,6-tetrahydrofuro[3,2-c]pyridine-7-carboxamide], the figures for the IC50 in experiment [1] and in experiment [3] were 20.6 nM and 2280 nM, respectively.

On to `N#Cc1cc2c(Oc3ccc(NC(=O)c4c5c(cn(-c6ccc(F)cc6)c4=O)CCO5)cc3F)ccnc2cc1OCCCN1CCOCC1` [Example 174, N-(4-((6-Cyano-7-(3-morpholinopropoxy)quinolin-4-yl)oxy)-3-fluorophenyl)-5-(4-fluorophenyl)-6-oxo-2,3,5,6-tetrahydrofuro[3,2-c]pyridine-7-carboxamide], for which the IC50 in experiment [1] was determined as 1.61 nM; in experiment [3] it was 4 nM.

Consider `O=C(Nc1ccc(Oc2ccnc(NCCCN3CCOCC3)c2Cl)c(F)c1)c1c2c(cn(-c3ccc(F)cc3)c1=O)CCO2` [Example 62, N-(4-((3-Chloro-2-((3-morpholinopropyl)amino)pyridin-4-yl)oxy)-3-fluorophenyl)-5-(4-fluorophenyl)-6-oxo-2,3,5,6-tetrahydrofuro[3,2-c]pyridine-7-carboxamide], for which the IC50 is 12.3 nM in experiment [1] and 1670 nM in experiment [3].

For the molecule `COc1cc2nccc(Oc3ccc(NC(=O)c4c5c(cn(-c6ccc(F)cc6)c4=O)CCO5)cc3F)c2cc1OCCN1CCOCC1` [Example 175, N-(3-Fluoro-4-((7-methoxy-6-(2-morpholinoethoxy)quinolin-4-yl)oxy)phenyl)-5-(4-fluorophenyl)-6-oxo-2,3,5,6-tetrahydrofuro[3,2-c]pyridine-7-carboxamide], the IC50 in experiment [1] was 1.24 nM; in experiment [3] it was 2 nM.

Regarding `CCNC(=O)c1cc2c(Oc3ccc(NC(=O)c4c5c(cn(-c6ccc(F)cc6)c4=O)CCO5)cc3F)ccnc2cc1OC` [Example 51, N-(4-((6-(Ethylcarbamoyl)-7-methoxyquinolin-4-yl)oxy)-3-fluorophenyl)-5-(4-fluorophenyl)-6-oxo-2,3,5,6-tetrahydrofuro[3,2-c]pyridine-7-carboxamide], the IC50 came out at 0.55 nM in experiment [1] and 2 nM in experiment [3].
